The text below walks through data of PubChem BioAssay AID1013 (Columbia University Molecular Screening Center, 2008).

Active and inactive are the calls of the source. No rule for the calls is given here.

Assay [1] in a line: inhibitors of TNFa-induced VCAM1 expression, confirmation, imaging, TNFa stimulus, retest and dose response (AID 1013).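 As to cell count: compound on cells 1 h before TNFa then 24 h more.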 As to conditions: TNFa-stimulated cells, VCAM1 expression imaging; cell count; at 10 µM; stronger effect = lower value.
Assay [2] relates to TNFa-stimulated cells, VCAM1 expression imaging. The assay is described as above.

Take `Cc1cccc(CS(=O)(=O)c2nnc([C@H](Cc3ccccc3)NC(=O)OC(C)(C)C)o2)c1`: the cell count in assay [1] was 99.2%. Besides, in assay [2], the IC50 – broadly, the concentration that inhibits the measured activity by half – was > 10 µM (inactive).
`Cc1ccc(NC2=C/C(=N\S(=O)(=O)c3cccs3)c3ccccc3C2=O)c(C)c1` yielded a cell count in assay [1] of 104%. Further, the IC50 in assay [2] was > 10 µM (inactive).
Consider `O=C(N/N=C/C(Br)=C\c1ccccc1)c1n[nH]c2c1CCC2`, for which, in assay [1], the cell count came to 29.2%. The IC50 in assay [2] is 0.636 µM.
In assay [1], `Cc1cccc(NC(=O)CSc2nc3ccc(NC(=O)CSc4nnnn4-c4ccccc4)cc3s2)c1C` registered a cell count of 107%. Also, the IC50 in assay [2] is > 10 µM (inactive).
For `CCOC(=O)Nc1nc(-c2ccccc2)c(C(=O)c2ccccc2)s1`, in that order: 61.6% and > 10 µM (inactive).
For `COc1ccc(OC)c(NS(=O)(=O)c2ccc(N3CCCC3=O)cc2)c1`, in that order: 43.7% and 2.93 µM.
Compound `C#CC(=O)N(c1cccc(OC)c1)C(C(=O)NC1CCCC1)c1cccs1` (stereo unspecified) came in with a cell count in assay [1] of 0.98%. Further, the 50% inhibitory concentration (IC50) in assay [2] was 1.77 µM.
Taken in the same sequence, the figures for `Oc1ccc(Nc2nc(-c3ccc4ccccc4c3)cs2)cc1` were 92.9% and > 10 µM (inactive).
For `Cc1cccc(OCC(=O)Nc2cc(C)ccc2O)c1`, in that order: 91.2% and 0.452 µM.
Taken in the same sequence, the figures for `CCOc1ccccc1C(=O)N1CCN(c2cccc(Cl)c2)CC1` were 15.7% and 0.231 µM.
As to `Cc1cc(C)c2nc(SCC(=O)N3CC(=O)Nc4ccccc43)c(C#N)cc2c1`, the cell count in assay [1] was 47.2%. In addition, the IC50 in assay [2] was 4.81 µM.
In assay [1], `CC(C)(C)C(=O)/C(=C\c1cccc([N+](=O)[O-])c1)n1cncn1` registered a cell count of 1.73%. Moreover, the 50% inhibitory concentration (IC50) in assay [2] is 1.09 µM.
Taken in the same sequence, the figures for `COCCOC(=O)c1[nH]c2c(c1C)C(=O)CC(c1ccccc1)C2` (stereo unspecified) were 63% and > 10 µM (inactive).
In assay [1], `C=CCn1c(SCc2c(C)noc2C)nc2ccccc2c1=O` yielded a cell count of 43.3%. Moreover, the IC50 in assay [2] was > 10 µM (inactive).
For `O=C1c2cccc3c([N+](=O)[O-])ccc(c23)C(=O)N1c1ccc(Cl)cn1`, in that order: 103% and > 10 µM (inactive).
Taken in the same sequence, the figures for `COc1ccc(-c2cc(C(F)(F)F)n3nc(C(=O)Nc4cc(C)on4)cc3n2)cc1OC` were 97.9% and > 10 µM (inactive).
`CC(=O)c1c(C)oc2ccc(N(C(C)=O)S(=O)(=O)c3ccc(Cl)c([N+](=O)[O-])c3)cc12` came in with a cell count in assay [1] of 104%. Besides, in assay [2], the IC50 was > 10 µM (inactive).
Taken in the same sequence, the figures for `CCN(CC)c1ccc(-c2nn3c(-c4ccccc4OC)nnc3s2)cc1` were 31.6% and 2.97 µM.
`O=[N+]([O-])c1ccc(O)c(/C=N/Nc2ccc(Cl)nn2)c1` showed a cell count in assay [1] of 106%. Besides, the IC50 in assay [2] was > 10 µM (inactive).
`O=c1cc(C(Cl)(Cl)Cl)oc2c1ccc1ccccc12`: in assay [1], the cell count was found to be 104%. Further, the IC50 in assay [2] is > 10 µM (inactive).
Taken in the same sequence, the figures for `COc1ccc(CCNc2nnc(Sc3nnnn3-c3ccccc3)s2)cc1OC` were 27.4% and 1.61 µM.
`Cc1c(C(=O)OCC(C)C)[nH]c2c1C(=O)CC(c1ccco1)C2` (stereo unspecified) yielded a cell count in assay [1] of 48.4%. The IC50 in assay [2] is > 10 µM (inactive).
In assay [1], `Nc1nnnn1/N=C/C(Br)=C/c1ccccc1` gave a cell count of 106%. In addition, the IC50 in assay [2] is > 10 µM (inactive).
On to `COc1ccc(NC(=O)/C(Cl)=C(/Cl)S(=O)Cc2ccc(C)cc2)cn1` (stereo unspecified), for which the cell count in assay [1] was 55%. For the same compound, in assay [2], the IC50 was 2.19 µM.
For the compound `CC1=C([N+](=O)[O-])C(c2cccc(Br)c2)C2=C(N1)c1ccccc1C2=O` (stereo unspecified), in assay [1], the cell count was 68.1%. Also, the IC50 in assay [2] is > 10 µM (inactive).
For `COc1ccccc1-n1cnc2cc(NCc3ccco3)ccc21`, in that order: 41.8% and > 10 µM (inactive).
The compound `C/C(=N\O)c1ccc2c3ccccc3n(C)c2c1` gave a cell count in assay [1] of 89%. Moreover, the IC50 in assay [2] was > 10 µM (inactive).
For `O=C(OCn1ncc(Br)c(Br)c1=O)c1c(F)cccc1F`, in assay [1], the cell count worked out at 54.9%. For the same compound, the IC50 in assay [2] is 8.04 µM.
As for `CCN(CC)c1ccc(-c2nn3c(-c4n[nH]c5c4CCC5)nnc3s2)cc1`, the cell count in assay [1] was 57.7%. In addition, the IC50 in assay [2] was > 10 µM (inactive).
`CCOC(=O)c1[nH]c(C)c(C(=O)N2CCc3ccccc32)c1C`: in assay [1], the cell count stood at 61.8%. Moreover, the 50% inhibitory concentration (IC50) in assay [2] was 0.778 µM.
For `O=C(OCn1ncc(Br)c(Br)c1=O)c1ccc(F)cc1`, in that order: 2.02% and 2.86 µM.
`Cc1ccc2[nH]c(-c3ccccc3)cc(=O)c2c1`: in assay [1], the cell count was 63.3%. The IC50 in assay [2] is 4.49 µM.
For `CCc1ccc(C(=O)/C=C/c2ccc([N+](=O)[O-])o2)cc1`, in that order: 94.9% and > 10 µM (inactive).
The compound `O=Cc1cc2ccccc2nc1SCc1ccc(Cl)c(Cl)c1` yielded a cell count in assay [1] of 109%. Further, the IC50 in assay [2] is > 10 µM (inactive).
For `O=C1C(=O)c2ccc(-c3ccccc3)cc2-c2ccccc21`, in that order: 109% and > 10 µM (inactive).
For `COc1cc(C2C3=C(Nc4ncnn42)c2ccccc2CC3)cc(OC)c1OC` (stereo unspecified), the cell count in assay [1] was 27.6%. Further, the half-maximal inhibitory concentration (IC50) in assay [2] is 1.76 µM.
Taken in the same sequence, the figures for `CCN(CC)c1ccc(C2=NNC(=O)CC2C)cc1[N+](=O)[O-]` (stereo unspecified) were 50.8% and 0.0384 µM.
For `COc1cc(/C=C(/C#N)C(=O)NCCc2c[nH]c3ccccc23)ccc1OCc1ccccc1F`, in that order: 98.2% and > 10 µM (inactive).
Taken in the same sequence, the figures for `COc1ccc(C2=Nn3c(nnc3-c3ccc(OC)cc3)SC2)cc1` were 114% and > 10 µM (inactive).
Turning to `COc1ccc(N=c2oc3ccc(OC)cc3cc2-c2nc3ccccc3[nH]2)cc1`, the cell count in assay [1] came out at 110%. The IC50 in assay [2] was > 10 µM (inactive).
On to `N=c1c2c(-c3ccccc3)c(-c3ccccc3)n(Cc3ccccc3)c2ncn1CCCn1ccnc1`, for which the cell count in assay [1] came to 56.8%. Also, in assay [2], the IC50 is 1.06 µM.
In the case of `CC[C@@H](C)[C@H](NC(=O)OC(C)(C)C)c1nnc(S(=O)(=O)Cc2cc(C)ccc2C)o1`, the cell count in assay [1] was 117%. Also, the IC50 in assay [2] is > 10 µM (inactive).
For `Cc1cc(NC(=O)CSc2nc(-c3ccco3)cc(C(F)(F)F)n2)no1`, in that order: 94.3% and > 10 µM (inactive).
